Tests used:
[1] = system: Lólium perénne; test: Visual effect rating (0-9) after herbicide spraying; format: in vivo; settings: Roundup Bio, Lólium perénne
Description: (§1) Four, eight, sixteen and thirty two days after spraying, visual effects on plants were noted before harvest, using the rating chart described in Hamil. et al. (1977) and Boutin et al. (1993); a rating of zero indicates full growth and vigour, and a rating of nine indicates no growth/mortality.
(§2) The min. visual effect (VE) of the presence of plant biomarkers is rated as described by Hamil et al., (1977) and Boutin et al. (1993).

[2] = system: Centauréa cýanus; test: as above; format: in vivo
Description: as §1, §2

[3] = system: Anagallis arvensis; test: as above; format: in vivo; settings: Roundup Bio, Anagallis arvensis
Description: as §1, §2

[4] = system: Plantágo lanceoláta; test: as above; format: in vivo
Description: as §1, §2

[5] = system: Centauréa cýanus; test: TLC plant biomarker pattern after herbicide spraying (greenhouse); format: in vivo
[6] = system: tobacco cell cultures; settings: two cell lines, in the presence of glyphosate; cited from earlier work
[7] = system: Bellis perennis; test: TLC phytochemical changes after Roundup Bio (sensitivity); format: in vivo
Description: (§3) Glyphosate (Roundup Bio (360 g L1:) was supplied by Monsanto Denmark ANS. Recommended field dose =1,44 kg a.i. ha^−1. In all the experiments, an automatic sprayer (designed in Denmark by Jens Kristensen 1994) was used where the herbicide application is achieved by moving boom equipment with two ordinary hydraulic flat fan nozzles (Hardl 4110-16). Two pots per spray event were placed in the middle of the spray chamber at 50 cm distance from the nozzle, delivering 200 L of water per hectare with a desired herbicide concentration (working pressure 2 bars; speed of spray boom=4.7 km h^1). The spraying was performed starting with the lowest concentration first, progressing towards the highest concentration. Between each herbicide, the sprayer was thoroughly rinsed several times with water. The control plants were sprayed with water.
(§4) The study was performed in greenhouse between August and December 1998 for all species. Degree days (=(Present temperature in ° C.-5° C.)×amount of days) were used as time scale. The plants were 226-378 degree days (30 days) old before exposure. The plants were exposed to 0, 1. 10 and 100% of the recommended field dose of Roundup Bio. Before the harvest, the plants were evaluated for visual effects using the rating chart described in Table 1 (Hamit et al., 1977). A rating of zero indicates full growth and vigour (compared with control plants) and a rating of nine, no growth/mortality. The plants were all harvested 180 degree days (14 days) after exposure. The plants were lyophilizied and k pt dry and in dark before phytochemical analysis.
(§5) 250 mg lyophilized plant material was crushed and extracted with 5.00 ml 75% ethanol in water in ultrasonic bath for two hours. Ice was added to the bath every 30 minutes to keep the temperature constant during the extraction. The extracts wer transferred to vials and centrifuged (3000 g per min.) for 10 minut s. The extract was immediately used for phytochemical analysis.
(§6) Frozen or fresh plant material was pressed for plant sap using a hand press. The sap was transferred to vials and centrifuged (3000 g per min.) for 10 minutes. The extract was immediately used for phytochemical analysis.
(§7) Rf-values (defined as, Rf-value=Distance of spot centre from start point/Distance of solvent front from start point (Stahl, 1969)) were determined for all phytochemical compounds.
(§8) In table 2 the sensitivity of the different plant species to Roundup Bio is presented. The sensitivity of the plant species was evaluated on basis of the presence of the most frequent pattern, the lowest concentration of exposure, and the visual effect of the exposed plants. In table 2, the plant species are divided into three groups: Group I: Very sensitive plant species; Group II: Medium sensitive plant species, and Group III: Less sensitive plant species. In Group I, a phytochemical pattern was present in plants exposed to 1% of the recommended field dose of Roundup Bio with a visual effect from 0 to 4. In Group II, a phytochemical pattern was found in plants exposed to 1 to 10% of the recommended field dose of the herbicide with a visual effect from 0 to 5. Finally, Group III presents plant species containing a phytochemical pattern after exposure of 10% of the recommended field dose with a visual effect from 5 to 7.
(§9) Table 2: Sensitivity of plants exposed to glyphosate (Roundup Bio), based on presence of phytochemical changes in all the TLC-Systems at lowest dose of concentration (LC) of the herbicide in percent of field dose. The corresponding visual effect (VE) Is presented (see table 1).

[8] = system: Fallopia convolvulus; test: as above; format: in vivo
Description: as §3, §4, §5, §6, §7, §8, §9

[9] = system: Papaver rhoeas; test: as above; format: in vivo
Description: as §3, §4, §5, §6, §7, §8, §9

[10] = system: Mentha spicata; test: as above; format: in vivo
Description: as §3, §4, §5, §6, §7, §8, §9

[11] = system: Sinapis avensis; test: as above; format: in vivo
Description: as §3, §4, §5, §6, §7, §8, §9

[12] = system: Nepeta cataria; test: as above; format: in vivo
Description: as §3, §4, §5, §6, §7, §8, §9

[13] = system: Rudbeckia hirta; test: as above; format: in vivo
Description: as §3, §4, §5, §6, §7, §8, §9

[14] = system: Rumex crispus; test: as above; format: in vivo
Description: as §3, §4, §5, §6, §7, §8, §9

[15] = system: Leonorus carica; test: as above; format: in vivo
Description: as §3, §4, §5, §6, §7, §8, §9

## O=C(O)CNCP(=O)(O)O [Glyphosate]
[1]
  VE: corresponding visual effect: 0
[2]; at presence of TLC 1 biomarker
  Min. visual effect: 3
[2]; at presence of TLC 6 biomarker
  Min. visual effect: 3
[2]; at presence of TLC 7 biomarker
  Min. visual effect: 3
[3]
  VE: corresponding visual effect: 0
[4]; at presence of TLC 1 biomarker
  Min. visual effect: 0
[4]; at presence of TLC 6 biomarker
  Min. visual effect: 4
[5]; TLC 1 (non-specific compounds)
  Min. of label dose of herbicide with effect: 10%
[5]; TLC 6 (lipids and terpens)
  Min. of label dose of herbicide with effect: 10%
[5]; TLC 7 (non-specific compounds)
  Min. of label dose of herbicide with effect: 10%
[6]
  increase of levels of free shikimic acid: more than 300 fold
[7]
  LC: lowest dose of concentration of the herbicide with phytochemical changes in all the TLC-Systems: 10% of field dose
[8]
  LC: lowest dose of concentration of the herbicide with phytochemical changes in all the TLC-Systems: 1% of field dose
[9]
  LC: lowest dose of concentration of the herbicide with phytochemical changes in all the TLC-Systems: 1% of field dose
[10]
  LC: lowest dose of concentration of the herbicide with phytochemical changes in all the TLC-Systems: 10% of field dose
[11]
  LC: lowest dose of concentration of the herbicide with phytochemical changes in all the TLC-Systems: 10% of field dose
[12]
  LC: lowest dose of concentration of the herbicide with phytochemical changes in all the TLC-Systems: 10% of field dose
[13]
  LC: lowest dose of concentration of the herbicide with phytochemical changes in all the TLC-Systems: 1% of field dose
[14]
  LC: lowest dose of concentration of the herbicide with phytochemical changes in all the TLC-Systems: 1% of field dose
[15]
  LC: lowest dose of concentration of the herbicide with phytochemical changes in all the TLC-Systems: 10% of field dose

From patent US20040029208A1, “Assay method and kit for testing biological material for exposure to stress using biomarkers” (priority 2000, published 2004)
